According to paper PMC10597649, “Effect of Astragali radix extract on pharmacokinetic behavior of dapagliflozin in healthy and type 2 diabetic rats” (Frontiers in Pharmacology, 2023):

Assay: in vivo
Settings: for Cmax / MRT last / half-life / Tmax: male, Sprague-Dawley, rat, plasma, po; for MRT last: MRT(0-t)
Procedure: An AB SCIEX (USA) Exion LC system consisting of vacuum degasser, binary pump and auto-sampler were used for solvent and sampler delivery. Chromatographic separation was achieved using Agilent Poroshell 120 EC-C18 column (2.1 × 100 mm, 1.9 μm). The column temperature was maintained at 40°C. The mobile phase consisted of 0.1% formic acid-1mM ammonium formate-water solution (A) and acetonitrile (B) was used, and the flow rate was set at 0.3 mL/min. The gradient elution program was as follows: 0–2.0 min (90%–65% A), 2.0–6.0 min (65%–60% A), 6.0–7.0 min (60%–90% A), 7–10 min (90% A). The processed samples were stored at 4°C in an auto sampler. The sample injection volume was 2 μL. An AB SCIEX (USA) Q-TRAP 6500 model mass spectrometer (MS) equipped with a turbolon spray ionization (ESI) source was used for mass analysis and detection. DAPA and the internal standard (IS, i.e., empagliflozin) were analyzed in positive ion mode with multiple reaction monitoring (MRM) pairs: m/z 426.1–355.0 for DAPA and m/z 468.1–355.1 for IS. The ion spray voltage was set at 5500V. The curtain gas, ion source gas 1 and ion source gas 2 were set at 35, 60 and 50 psi, respectively. The source temperature was kept at 200°C. The collision gas was set at low flow rate. The declustering potential and collision energy were 35 V and 19 V for DAPA, 40 V and 21 V for IS.
The rat plasma samples (50 μL), IS working solution (5 μL), 50% methanol (5 μL), and MTBE (500 μL) were mixed, then were vortexed for 3 min and centrifuged for 5 min (4000 rpm, 4°C). The organic phase was transferred to a new centrifuged tube and evaporated to dryness with a stream of nitrogen at room temperature. The dried samples were redissolved with 100 µL of 50% methanol and vortexed for 1 min, then 2 µL of supernatant fluid was injected into the LC-MS/MS instrument for analysis.
Male Sprague Dawley (SD) rats (180–220g, 6–8 weeks old) were provided by Animal Experimentation Centre, School of Pharmacy, Fudan University (Shanghai, China). All the experimental procedures for this study were reviewed and approved by Experimental Animal Ethics Committee of School of Pharmacy, Fudan University, which was in strict compliance with the International Code for the Care and Use of Experimental Animals (approval number:2020-04-LY-MG-01). All the animals were housed under standard laboratory conditions of temperature (25°C ± 2°C), constant humidity (55 ± 5%), and light (12 h dark/light cycle), with freely available food and purified water. After 1 week of acclimation, 12 rats were randomly selected as the healthy group that was fed with the ordinary feed. The remaining 20 rats were modeled for T2DM that were fed with high-fat diet (HFD). After 4 weeks, the modeled rats fed HFD were fasted overnight, and measured fasting blood glucose (FBG), then intraperitoneally injected with STZ (35 mg/kg, inject once). One week later, the FBG was measured again, and only those rats whose FBG were over 16.7 mmol/L were considered to be T2DM rats.
Dose of 1 mg/kg for DAPA used in the study was recommended based on the package insert of DAPA and dose conversion per unit weight from humans to rats (6.3 times). ARE was administered to the rats with the dose of 300 mg/kg, which was selected by converting the recommended doses of AR for adults in practice to the doses of ARE for the rats, according to the Pharmacopoeia of the People’s Republic of China. The healthy rats and T2DM rats were randomly assigned to two groups (n = 6 each group). The CD group was the healthy rats intragastrically administered with DAPA in a single dose (1 mg/kg). The CDA group was the healthy rats intragastrically administered with ARE (300 mg/kg) once a day for seven consecutive days, and intragastrically administered with DAPA (1 mg/kg) at the same time on the seventh day. The MD group was the T2DM rats intragastrically administered with DAPA in a single dose (1 mg/kg).

[1] = MD group: T2DM rats, DAPA alone, single intragastric dose 1.05 mg/kg, n = 6, mean ± SD
[2] = MDA group compared to MD group (T2DM rats, with ARE versus DAPA alone)
[3] = MDA group: T2DM rats, ARE 300 mg/kg intragastric once a day for 7 days + DAPA single dose 1.05 mg/kg on day 7, n = 6, mean ± SD
[4] = MDA-H group: T2DM rats, ARE 900 mg/kg once a day for 7 days + DAPA single dose 1.05 mg/kg on day 7, n=6, mean ± SD
[5] = MDA-L group: T2DM rats, ARE 300 mg/kg once a day for 7 days + DAPA single dose 1.05 mg/kg on day 7, n=6, mean ± SD
[6] = T2DM rats compared to healthy rats, DAPA alone

With `CCOc1ccc(Cc2cc([C@@H]3O[C@H](CO)[C@@H](O)[C@H](O)[C@H]3O)ccc2Cl)cc1` [DAPA, Dapagliflozin] the “AUC(0-inf)” value [1] was 4505.74±148.96 h*(ng/mL), the “AUC(0-t)” value [1] was 4324.28±185.47 h*(ng/mL) and the CL [1] was 233.25±7.80 (mL/h)/kg. The V [1] was 1.49898 ± 0.30743 L/kg, the “decrease of C max” value [2] was 31.99% and the “decrease of t max” value [2] was 62.50%. The “increase of V” value [2] was 2.06 fold, the “increase of t 1/2” value [2] was 2.18 fold and the “AUC(0-inf)” value [3] was 4865.13±1307.11 h*(ng/mL). The “AUC(0-t)” value [3] was 4051.27±952.61 h*(ng/mL), the CL [3] was 228.25±56.10 (mL/h)/kg and the V [3] was 3.09173 ± 1.18358 L/kg. For the same compound, the “AUC(0-inf)” value [4] was 4464.67±408.26 h*(ng/mL), the “AUC(0-t)” value [4] was 4070.47±408.83 h*(ng/mL) and the CL [4] was 237.88±21.93 (mL/h)/kg. For the same compound, the V [4] was 2.55248 ± 0.48245 L/kg, the “AUC(0-inf)” value [5] was 4560.99±768.53 h*(ng/mL) and the “AUC(0-t)” value [5] was 3991.37±640.65 h*(ng/mL). The CL [5] was 235.15±35.35 (mL/h)/kg, the V [5] was 2.91586 ± 0.51024 L/kg and the “decrease of t max” value [6] was 29.45%. The “increase of C max” value [6] was 62.94%, the “difference of AUC(0-t), AUC(0-inf), CL, MRT” value (between the MD group and the MDA group (T2DM rats)) was “no significant difference” and the “changes for t 1/2, V, AUC, CL and MRT” value (healthy rats versus T2DM rats, DAPA alone) was “no significant changes”. For the same compound, the Cmax (1.05 mg/kg, C max, MD group: T2DM rats, DAPA alone, single intragastric dose 1.05 mg/kg, n = 6, mean ± SD) was 627 ± 68.6 ng/mL, the Cmax (1.05 mg/kg, Cmax, MDA-H group: T2DM rats, ARE 900 mg/kg once a day for 7 days + DAPA single dose 1.05 mg/kg on day 7, n=6, mean ± SD) was 457 ± 50.4 ng/mL and the Cmax (1.05 mg/kg, Cmax, MDA-L group: T2DM rats, ARE 300 mg/kg once a day for 7 days + DAPA single dose 1.05 mg/kg on day 7, n=6, mean ± SD) was 433 ± 62.6 ng/mL. For the same compound, the MRT last (1.05 mg/kg, MD group: T2DM rats, DAPA alone, single intragastric dose 1.05 mg/kg, n = 6, mean ± SD) was 7.57 ± 0.32 h, the MRT last (1.05 mg/kg, MDA-H group: T2DM rats, ARE 900 mg/kg once a day for 7 days + DAPA single dose 1.05 mg/kg on day 7, n=6, mean ± SD) was 7.23 ± 0.37 h and the MRT last (1.05 mg/kg, MDA-L group: T2DM rats, ARE 300 mg/kg once a day for 7 days + DAPA single dose 1.05 mg/kg on day 7, n=6, mean ± SD) was 7.39 ± 0.34 h. The half-life (1.05 mg/kg, t 1/2, MD group: T2DM rats, DAPA alone, single intragastric dose 1.05 mg/kg, n = 6, mean ± SD) was 4.45 ± 0.9 h, the half-life (1.05 mg/kg, t1/2, MDA-H group: T2DM rats, ARE 900 mg/kg once a day for 7 days + DAPA single dose 1.05 mg/kg on day 7, n=6, mean ± SD) was 7.44 ± 0.86 h and the half-life (1.05 mg/kg, t1/2, MDA-L group: T2DM rats, ARE 300 mg/kg once a day for 7 days + DAPA single dose 1.05 mg/kg on day 7, n=6, mean ± SD) was 8.64 ± 1.08 h. The Tmax (1.05 mg/kg, t max, MD group: T2DM rats, DAPA alone, single intragastric dose 1.05 mg/kg, n = 6, mean ± SD) was 4 h, the Tmax (1.05 mg/kg, tmax, MDA-H group: T2DM rats, ARE 900 mg/kg once a day for 7 days + DAPA single dose 1.05 mg/kg on day 7, n=6, mean ± SD) was 1.45 ± 0.61 h and the Tmax (1.05 mg/kg, tmax, MDA-L group: T2DM rats, ARE 300 mg/kg once a day for 7 days + DAPA single dose 1.05 mg/kg on day 7, n=6, mean ± SD) was 1.25 ± 0.82 h. It also gave a Cmax (C max, MDA group: T2DM rats, ARE 300 mg/kg intragastric once a day for 7 days + DAPA single dose 1.05 mg/kg on day 7, n = 6, mean ± SD) of 427 ± 58.9 ng/mL, an MRT last [3] of 7.64 ± 0.7 h and a half-life (t 1/2, MDA group: T2DM rats, ARE 300 mg/kg intragastric once a day for 7 days + DAPA single dose 1.05 mg/kg on day 7, n = 6, mean ± SD) of 9.69 ± 3.47 h. The Tmax (t max, MDA group: T2DM rats, ARE 300 mg/kg intragastric once a day for 7 days + DAPA single dose 1.05 mg/kg on day 7, n = 6, mean ± SD) was 1.5 ± 0.77 h.
